# Where two headings read alike, the source gives them in different places.
# Assays:
# [1] = biological target: T1, PD-L1 (Homo sapiens, UniProt Q9NZQ7); test: ELISA bindability of atezolizumab-peptide conjugate to PD-L1; type: binding; conditions: sample at 100 nM, average absorbance of two measurements
# T1 construct: purchased R&D SYSTEMS 9049-B7
# Protocol: The bindability of atezolizumab-peptide conjugates to the antigen PD-L1 was measured by ELISA.
# 100 μg of PD-L1 (R&D SYSTEMS, Cat. No. 9049-B7) was dissolved in PBS (Nacalai Tesque, Inc., Cat. No. 27575-31) to a final concentration of 1 g/L. To the dissolved PD-L1, 5 equivalents of 10 mM NHS-PEG4-Biotin (Thermo Scientific, Cat. No. A39259) was added and incubated at 4° C. overnight to biotinylate PD-L1. To a column packed with 1 mL of Bio-Gel P-6 (Bio-Rad, Cat. No. 1504130), swollen with a solution of polyoxyethylene sorbitan monolaurate (Nacalai Tesque, Inc., Cat. No. 28353-85) added to PBS to a final concentration of 0.1% (PBST), 100 μL of the above solution was added per one column to remove unreacted NHS-PEG4-Biotin.
# Random biotinylated PD-L1 was added to IMMOBILIZER STREPTAVIDIN F96 clear (NUNC, Cat. No. 436014) at 1 μmol per one well and incubated at 4° C. overnight to perform solidification. The plate was washed with 900 μL of PBST in a plate washer (TECAN, HydroSpeed). 300 μL of 1% Block Ace (KAC Co., Ltd., Cat. No. UK-B80) was added per one well and incubated at room temperature for 90 minutes to perform blocking treatment. The plate was washed with 900 μL of PBST in the plate washer. […] The absorbance at 450 nm was measured in a plate reader (Enspir (trademark), Perkin Elmer).
# [2] = ELISA no-target control wells (non-specific binding of antibodies and antibody-peptide conjugates); conditions: sample at 100 nM, no target immobilized
# Protocol: Random biotinylated PD-1 was added to IMMOBILIZER STREPTAVIDIN F96 clear (NUNC, Cat. No. 436014) at 1 μmol per one well and incubated at 4° C. overnight to perform solidification. The plate was washed with 900 μL of PBST in a plate washer (TECAN, HydroSpeed). 300 μL of 1% Block Ace (KAC Co., Ltd., Cat. No. UK-B80) was added per one well and incubated at room temperature for 90 minutes to perform blocking treatment. The plate was washed with 900 μL of PBST in the plate washer. […] The plate was washed with 900 μL of PBST in the plate washer. 50 μL of Goat Anti-Human IgG H&L (HRP) (Abcam, Cat. No. ab97165) diluted 50,000 times with PBST-0.1% Block Ace solution was added and incubated at room temperature for 45 min. The plate was washed with 900 μL of PBST in the plate washer. 50 μL of TMB Solution (Sara care, Cat. No. 5150-0077) at room temperature was added and color development was performed at room temperature for 10 min in dark place, then 50 μL of TMB Stop Solution (Sara care, Cat. No. 5150-0021) was added to stop the color development. The absorbance at 450 nm was measured in a plate reader (Enspir (trademark), Perkin Elmer).
# (§1) Random biotinylated TfR was added to IMMOBILIZER STREPTAVIDIN F96 clear (NUNC, Cat. No. 436014) at 1 μmol per one well and incubated at 4° C. overnight to perform solidification. The plate was washed with 900 μL of PBST in a plate washer (TECAN, HydroSpeed). 300 μL of 1% Block Ace (KAC Co., Ltd., Cat. No. UK-B80) was added per one well and incubated at room temperature for 90 minutes to perform blocking treatment. The plate was washed with 900 μL of PBST in the plate washer. 50 μL of various antibody-peptide conjugate and antibody whose peptide is not modified diluted to a final concentration of 100 nM by 50 mM HEPES pH 7.8-0.1% Block Ace were added and incubated at room temperature for 60 min. The plate was washed with 900 μL of PBST in the plate washer. 50 μL of Goat Anti-Human IgG H&L (HRP) (Abcam, Cat. No. ab97165) diluted 50,000 times with PBST-0.1% Block Ace solution was added and incubated at room temperature for 45 min. The plate was washed with 900 μL of PBST in the plate washer. 50 μL of TMB Solution (Sara care, Cat. No. 5150-0077) at room temperature was added and color development was performed at room temperature for 10 min in dark place, then 50 μL of TMB Stop Solution (Sara care, Cat. No. 5150-0021) was added to stop the color development. The absorbance at 450 nm was measured in a plate reader (Enspir (trademark), Perkin Elmer).
# [3] = biological target: T2, human TfR (Homo sapiens, UniProt P02786); test: ELISA bindability of various antibody-peptide conjugates to TfR; type: binding; conditions: sample at 100 nM, average absorbance of two measurements
# T2 construct: made in house
# Protocol: as §1
# [4] = Test substance concentration in tissue (brain migration), hTfR-KI mouse; type: in vivo, hTfR-KI mice; conditions: Example 7-2, tail vein 5 mg/kg, 6 and 24 hours, heart, lung, liver, spleen, kidney, quadriceps muscle, FIG. 2-4
# Protocol: Blood was drawn from the tail vein after 1 and 3 hours from administration (2 mice/time point). After 6 and 24 hours from administration, mice were anesthetized with isoflurane, blood was drawn from the right ventricle, and then perfused with saline from the left ventricle for 4 to 5 min for blood removing treatment. Blood was collected using an EDTA-2K-treated needle and syringe, and the collected blood was kept on ice until it was separated into plasma. After blood removing treatment, brains were harvested and divided into left and right portions, and the left brain was embedded in a freeze-embedding agent (OCT compound, Sakura Finetek Co., Ltd.) for immunostaining and a frozen block was prepared. The right brain, heart, lung, liver, spleen, kidney, and quadriceps muscle were collected for measurement of test substance concentrations in tissues, weighed, flash-frozen in liquid nitrogen, and stored at −70° C. or less. […]
# To Strept Avidin plate (Meso Scale Diagnostics, LLC), 150 μL/well of Blocker Casein in PBS (Thermo Fisher Scientific, Inc.) was added and shaken (26° C., 500 rpm) for 60 min in a plate shaker (Biosan) to perform blocking treatment. […] The concentration of each test substance in the samples were calculated by adding 150 μL/well of 2×Read Buffer T to each Strept Avidin plate and measuring with a plate reader (Sector S600, Meso Scale Diagnostics, LLC).
# [5] = Test substance concentration in plasma, hTfR-KI mouse; type: in vivo, hTfR-KI mice; conditions: Example 7-2, tail vein 5 mg/kg, 1, 3, 6 and 24 hours, FIG. 2-3
# Protocol: Blood was drawn from the tail vein after 1 and 3 hours from administration (2 mice/time point). After 6 and 24 hours from administration, mice were anesthetized with isoflurane, blood was drawn from the right ventricle, and then perfused with saline from the left ventricle for 4 to 5 min for blood removing treatment. Blood was collected using an EDTA-2K-treated needle and syringe, and the collected blood was kept on ice until it was separated into plasma.
# To Strept Avidin plate (Meso Scale Diagnostics, LLC), 150 μL/well of Blocker Casein in PBS (Thermo Fisher Scientific, Inc.) was added and shaken (26° C., 500 rpm) for 60 min in a plate shaker (Biosan) to perform blocking treatment. The Blocker Casein in PBS was removed from the Strept Avidin plates, and 200 μL/well of PBST was added to each plate and washed. 25 μL/well of Capture antibody solution was added to each Strept Avidin plate, and the plates were shaken (26° C., 500 rpm) for 60 min in a plate shaker. Capture antibody solution was removed and PBST was added 200 μL/well and washed. This washing operation was performed three times. […] The concentration of each test substance in the samples were calculated by adding 150 μL/well of 2×Read Buffer T to each Strept Avidin plate and measuring with a plate reader (Sector S600, Meso Scale Diagnostics, LLC).
# [6] = biological target: human transferrin receptor (hTfR) (Homo sapiens, UniProt P02786); test: SPR measurement of peptide binding to hTfR
# Source text: Note that ND indicates No Data (here, it means that no data was obtained).
# [7] = measured on the naked peptide (1st to 15th amino acids, without linker) corresponding to the listed linker-attached peptide, read-out: KD value of binding to hTfR by SPR
# Sequence of human transferrin receptor (hTfR) (P02786 whole entry): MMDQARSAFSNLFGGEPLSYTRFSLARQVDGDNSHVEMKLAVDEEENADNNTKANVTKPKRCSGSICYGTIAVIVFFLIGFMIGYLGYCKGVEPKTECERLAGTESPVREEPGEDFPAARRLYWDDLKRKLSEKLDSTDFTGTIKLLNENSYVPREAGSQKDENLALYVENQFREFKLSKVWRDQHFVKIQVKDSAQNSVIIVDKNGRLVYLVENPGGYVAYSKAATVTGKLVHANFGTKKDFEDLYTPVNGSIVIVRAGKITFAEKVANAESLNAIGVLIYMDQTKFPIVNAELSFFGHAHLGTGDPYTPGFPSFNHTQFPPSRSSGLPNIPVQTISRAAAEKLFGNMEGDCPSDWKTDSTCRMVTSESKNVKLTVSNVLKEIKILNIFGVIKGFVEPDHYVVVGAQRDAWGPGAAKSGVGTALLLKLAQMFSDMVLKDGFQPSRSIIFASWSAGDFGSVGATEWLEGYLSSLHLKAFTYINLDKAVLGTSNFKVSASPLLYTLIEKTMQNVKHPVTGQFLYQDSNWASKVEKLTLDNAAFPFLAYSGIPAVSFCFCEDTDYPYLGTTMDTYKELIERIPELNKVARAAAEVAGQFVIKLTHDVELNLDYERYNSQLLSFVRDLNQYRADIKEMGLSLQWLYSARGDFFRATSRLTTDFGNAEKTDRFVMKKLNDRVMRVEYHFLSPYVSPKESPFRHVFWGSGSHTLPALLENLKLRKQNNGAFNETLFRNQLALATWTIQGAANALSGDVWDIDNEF
# T1 sequence (Q9NZQ7 19-290): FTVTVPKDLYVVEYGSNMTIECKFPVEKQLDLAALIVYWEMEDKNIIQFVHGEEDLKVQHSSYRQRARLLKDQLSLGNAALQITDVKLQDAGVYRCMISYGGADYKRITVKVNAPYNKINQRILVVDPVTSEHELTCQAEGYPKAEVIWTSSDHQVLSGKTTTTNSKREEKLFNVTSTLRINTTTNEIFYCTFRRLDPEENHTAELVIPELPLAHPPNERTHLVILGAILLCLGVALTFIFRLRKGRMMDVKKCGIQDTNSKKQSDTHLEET
# T2 sequence (P02786 whole entry): as the sequence (P02786 whole entry) above
molecule,measurement,setting,value
atezolizumab,"Abs450 nm at 100 nM, Target PD-L1",[1],2.237
same,"Abs450 nm at 100 nM, No-target",[2],0.043
same,"Abs450 nm at 100 nM, Target hTfR",[3],0.0465
pertuzumab,"Abs450 nm at 100 nM, No-target",[2],0.0455
ipilimumab,"Abs450 nm at 100 nM, No-target",[2],0.044
pembrolizumab,"Abs450 nm at 100 nM, No-target",[2],0.0415
nivolumab [Nivolumab (control)],detection in tissues,[4],detected in all tissues
same,"concentration in plasma, time course",[5],detected in plasma at all time points evaluated and showed biphasic changes in plasma concentrations
CC[C@H](C)[C@@H]1NC(=O)[C@H](Cc2ccc(O)cc2)NC(=O)[C@H](Cc2ccc(O)cc2)NC(=O)[C@H](CC(N)=O)NC(=O)[C@H](Cc2c[nH]c3ccccc23)N(C)C(=O)[C@H](C(C)C)NC(=O)[C@H](Cc2ccccc2)NC(=O)[C@H](C(C)C)NC(=O)[C@H](C)NC(=O)CSC[C@@H](C(=O)NCCOCCOCCOCCOCCOCCOCCOCCOCCC(=O)N[C@@H](CCCCNC(=O)C2CCC(CN3C(=O)C=CC3=O)CC2)C(N)=O)NC(=O)[C@H](Cc2ccc(O)cc2)N(C)C(=O)[C@H](Cc2ccc(O)cc2)NC(=O)[C@H](CCCNC(=N)N)NC(=O)[C@H](CCCNC(=N)N)NC(=O)[C@H]([C@@H](C)CC)NC1=O (stereo partly shown) [894_5m_PEG08_K(Mal)],Kd,"[6]; naked peptide (1st to 15th amino acids, without linker part) corresponding to the listed linker-attached peptide, read-out: SPR of naked peptide (KD for binding to hTfR)",< 1 nM
CC[C@H](C)[C@@H]1NC(=O)[C@H](Cc2ccc(O)cc2)NC(=O)[C@H](Cc2ccc(O)cc2)NC(=O)[C@H](CC(N)=O)NC(=O)[C@H](Cc2c[nH]c3ccccc23)N(C)C(=O)[C@H](C(C)C)NC(=O)[C@H](Cc2ccccc2)NC(=O)[C@H](C(C)C)NC(=O)[C@H](C)NC(=O)CSC[C@@H](C(=O)NCC(=O)N[C@@H](CO)C(=O)N[C@@H](CO)C(=O)NCC(=O)N[C@@H](CO)C(=O)N[C@@H](CO)C(=O)N[C@@H](CCCCNC(=O)C2CCC(CN3C(=O)C=CC3=O)CC2)C(N)=O)NC(=O)[C@H](Cc2ccc(O)cc2)N(C)C(=O)[C@H](Cc2ccc(O)cc2)NC(=O)[C@H](CCCNC(=N)N)NC(=O)[C@H](CCCNC(=N)N)NC(=O)[C@H]([C@@H](C)CC)NC1=O (stereo partly shown) [894_5m_GSSGSS_K(Mal)],Kd,[6]; [7],< 1 nM
CC[C@H](C)[C@@H]1NC(=O)[C@H](Cc2ccc(O)cc2)NC(=O)[C@H](Cc2ccc(O)cc2)NC(=O)[C@H](CC(N)=O)NC(=O)[C@H](Cc2c[nH]c3ccccc23)N(C)C(=O)[C@H](C(C)C)NC(=O)[C@H](Cc2ccccc2)NC(=O)[C@H](C(C)C)NC(=O)[C@H](C)NC(=O)CSC[C@@H](C(=O)NCC(=O)NCC(=O)N[C@@H](CO)C(=O)NCC(=O)N[C@@H](CCC(=O)O)C(=O)N[C@@H](CO)C(=O)N[C@@H](CCCCNC(=O)C2CCC(CN3C(=O)C=CC3=O)CC2)C(N)=O)NC(=O)[C@H](Cc2ccc(O)cc2)N(C)C(=O)[C@H](Cc2ccc(O)cc2)NC(=O)[C@H](CCCNC(=N)N)NC(=O)[C@H](CCCNC(=N)N)NC(=O)[C@H]([C@@H](C)CC)NC1=O (stereo partly shown) [894_5m_GGSGES_K(Mal)],Kd,[6]; [7],< 1 nM
CC[C@H](C)[C@@H]1NC(=O)[C@H](Cc2ccc(O)cc2)NC(=O)[C@H](Cc2ccc(O)cc2)NC(=O)[C@H](CC(N)=O)NC(=O)[C@H](Cc2c[nH]c3ccccc23)NC(=O)[C@H](C(C)C)NC(=O)[C@H](Cc2ccccc2)N(C)C(=O)[C@H](C(C)C)NC(=O)[C@H](C)NC(=O)CSC[C@@H](C(=O)NCC(=O)NCC(=O)NCC(=O)NCC(=O)N[C@@H](CO)C(=O)N[C@@H](CO)C(=O)N[C@@H](CCCCNC(=O)C2CCC(CN3C(=O)C=CC3=O)CC2)C(N)=O)NC(=O)[C@H](Cc2ccc(O)cc2)N(C)C(=O)[C@H](Cc2ccc(O)cc2)NC(=O)[C@H](CCCNC(=N)N)NC(=O)[C@H](CCCNC(=N)N)NC(=O)[C@H]([C@@H](C)CC)NC1=O (stereo partly shown) [894_3m_G4S2_K(Mal)],Kd,[6],1 to 100 nM
CC[C@H](C)[C@@H]1NC(=O)[C@H](Cc2ccc(O)cc2)NC(=O)[C@H](Cc2ccc(O)cc2)NC(=O)[C@H](CC(N)=O)NC(=O)[C@H](Cc2c[nH]c3ccccc23)N(C)C(=O)[C@H](C(C)C)NC(=O)[C@H](Cc2ccccc2)N(C)C(=O)[C@H](C(C)C)NC(=O)[C@H](C)NC(=O)CSC[C@@H](C(=O)NCC(=O)NCC(=O)N[C@@H](CO)C(=O)NCC(=O)N[C@@H](CCC(=O)O)C(=O)N[C@@H](CO)C(=O)N[C@@H](CCCCNC(=O)C2CCC(CN3C(=O)C=CC3=O)CC2)C(N)=O)NC(=O)[C@H](Cc2ccc(O)cc2)N(C)C(=O)[C@H](Cc2ccc(O)cc2)NC(=O)[C@H](CCCNC(=N)N)NC(=O)[C@H](CCCNC(=N)N)NC(=O)[C@H]([C@@H](C)CC)NC1=O (stereo partly shown) [894_3m_5m_GGSGES_K(Mal)],Kd,[6]; [7],1 to 100 nM
